Tests used:
Format in all cases: in vivo, human
[1] = tested on: patients being treated for pulmonary arterial hypertension transitioned from a non-selexipag PPA; assay: Change in WHO/NYHA functional class (FC) from baseline after transition to selexipag; details: for patients with worsened FC / patients with improved FC: all transitioned patients
From the text: (§1) In this example, the effectiveness of transitioning patients from a non-selexipag PPA to selexipag was investigated. Patients were followed for up to 18 months and data were collected at the time of initiation, enrollment, and approximately quarterly post-enrollment. Eligible patients were aged ≥18 years and either newly initiated on selexipag at the time of enrollment or were already receiving selexipag and have a documented titration regimen.
(§2) “Transitioned patients” were defined as patients who were (i) taking a non-selexipag PPA for ≥30 days at the time of selexipag initiation who stopped the initial agent ≤7 days before selexipag initiation; or (ii) continued taking the initial, non-selexipag PPA when they initiated selexipag and gradually transitioned off that agent.
(§3) Assessments performed closest to selexipag initiation were considered to be “baseline.” Data at 6 and 12 months post-baseline were as follows (i) the window for the 6-month measurements was >0 months and <9 months; (ii) the window for the 12-month measurements was ≥9 months and <16 months; and (iii) the assessment closest to the 6- or 12-month time point, respectively, was used.

[2] = tested on: patients being treated for pulmonary arterial hypertension transitioned from a non-selexipag PPA; assay: Change from baseline in 6-minute walk distance (6MWD) after transition to selexipag
From the text: as §1, §2, §3

[3] = tested on: patients being treated for pulmonary arterial hypertension transitioned from a non-selexipag PPA; assay: Change from baseline in assessed risk category after transition to selexipag
From the text: as §3
Risk categories were assigned. Seven variables were used: World Health Organization or New York Heart Association functional class (FC), 6-minute walk distance (6MWD), N-terminal prohormone of brain natriuretic peptide (NT-proBNP), brain natriuretic peptide (BNP), and hemodynamic parameters, including right atrial pressure, cardiac index, and mixed venous oxygen saturation. If both NT-proBNP and BNP were available, the risk classification of each value was averaged together and the mean was used in the risk categorization. Thresholds from the 2015 European Society of Cardiology/European Respiratory Society Guidelines were applied to assign a risk score for each available variable: 1=low risk, 2=intermediate risk, and 3=high risk. The risk score from all available variables was then averaged. The resulting number was rounded to the nearest integer to produce the patient's individual risk category: 1=low risk, 2=intermediate risk, and 3=high risk

[4] = tested on: patients being treated for pulmonary arterial hypertension; assay: Safety: selexipag discontinuation and adverse events leading to discontinuation
From the text: as §1
AEs known to be associated with the selexipag mechanism of action were only reported if they were serious, led to selexipag discontinuation, or reflected an unusual pattern of severity.
Safety data were collected only for the period during which patients were enrolled. The median total duration of selexipag treatment on study was 13.7 months (IQR: 9.1-17.8 months) for all patients: 13.8 months (IQR: 9.2-17.8 months) for patients in the inhaled/oral group and 13.4 months (IQR: 6.8-15.9 months) for patients in the parenteral group.

[5] = transitioned from parenteral non-selexipag PPA, 6 months
[6] = transitioned from oral/inhaled non-selexipag PPA, 6 months
[7] = transitioned from oral/inhaled non-selexipag PPA, 12 months
[8] = transitioned from parenteral non-selexipag PPA, 12 months

**Q.** `CC(C)N(CCCCOCC(=O)NS(C)(=O)=O)c1cnc(-c2ccccc2)c(-c2ccccc2)n1` [selexipag, 2-{4-[(5,6-diphenylpyrazin-2-yl)(propan-2-yl)amino]butoxy}-N-(methanesulfonyl)acetamide] was tested. Which “disease course in the majority of patients as indicated by FC, 6MWD, and risk status” value ([1]; 12 months after transitioning, regardless of type of prior non-selexipag PPA) did it give?
**A.** Its value is “unchanged or improved disease”.

**Q.** What about the “patients with worsened FC” value ([1]; 6 months vs baseline) of the same compound?
**A.** Its value is “none”.

**Q.** And the “patients with improved FC” value ([1]; 6 months vs baseline, data for 46% of patients)?
**A.** The value was 27%.

**Q.** And the “patients with worsened FC” value ([1]; 12 months vs baseline)?
**A.** The value was 10%.

**Q.** And the “patients with improved FC” value ([1]; 12 months vs baseline, data for 70% of patients)?
**A.** Its value is 21%.

**Q.** What about the FC versus baseline ([1]; transitioned patients, at 6 and 12 months) of the same compound?
**A.** The FC versus baseline was “maintained in the majority of transitioned patients”.

**Q.** And the 6MWD versus baseline ([2]; all patients, 12 months)?
**A.** Its 6MWD versus baseline is “modest increase in 6MWD”.

**Q.** What about the 6MWD versus baseline ([2]; transitioned from oral/inhaled PPA, 6 months) of the same compound?
**A.** The 6MWD versus baseline was “increased 6MWD”.

**Q.** What about the “median 6MWD versus baseline” value [2, 5] of the same compound?
**A.** Its value is “decreased median 6MWD from baseline”.

**Q.** What about the “patients with improved risk status” value [3, 6] of the same compound?
**A.** Its value is 21%.

**Q.** What about the “patients with maintained risk status” value [3, 6] of the same compound?
**A.** Its value is 63%.

**Q.** And the “patients with worsened risk status” value [3, 6]?
**A.** The value was 17%.

**Q.** What about the “patients with improved FC (in the risk status paragraph)” value [3, 7] of the same compound?
**A.** Its value is 24%.

**Q.** What about the “patients with maintained risk status” value [3, 7] of the same compound?
**A.** Its value is 61%.

**Q.** And the “patients with worsened FC (in the risk status paragraph)” value [3, 7]?
**A.** The value was 15%.

**Q.** What about the “patients with improved risk status” value [3, 5] of the same compound?
**A.** The value was 27%.

**Q.** And the “patients with maintained or improved risk status” value [3, 5]?
**A.** The value was 67%.

**Q.** And the “patients with maintained risk status” value [3, 5]?
**A.** The value was 40%.

**Q.** And the “patients with worsened risk status” value [3, 5]?
**A.** The value was 33%.

**Q.** What about the “patients with improved risk status” value [3, 8] of the same compound?
**A.** Its value is 29%.

**Q.** And the “patients with maintained or improved risk status” value [3, 8]?
**A.** The value was 86%.

**Q.** What about the “patients with maintained risk status” value [3, 8] of the same compound?
**A.** The value was 57%.

**Q.** And the “patients with worsened risk status” value [3, 8]?
**A.** Its value is 14%.

**Q.** And the “AE leading to selexipag discontinuation: Acute respiratory failure, %” value ([4]; All Patients (N = 56))?
**A.** The value was “(1.8) %”.

**Q.** And the “AE leading to selexipag discontinuation: Arthralgia, %” value ([4]; All Patients (N = 56))?
**A.** Its value is “(1.8) %”.

**Q.** And the “AE leading to selexipag discontinuation: Cardiac arrest, %” value ([4]; All Patients (N = 56))?
**A.** Its value is “(1.8) %”.

**Q.** What about the “AE leading to selexipag discontinuation: Cardiac disorders, %” value (“AE leading … Cardiac disorders, %” for short) ([4]; All Patients (N = 56)) of the same compound?
**A.** The value was “(7.1) %”.

**Q.** What about the “AE leading to selexipag discontinuation: Cardiac failure congestive, %” value ([4]; All Patients (N = 56)) of the same compound?
**A.** Its value is “(1.8) %”.

**Q.** What about the “AE leading to selexipag discontinuation: Fluid overload, %” value ([4]; All Patients (N = 56)) of the same compound?
**A.** The value was “(1.8) %”.

**Q.** And the “AE leading to selexipag discontinuation: Headache, %” value ([4]; All Patients (N = 56))?
**A.** Its value is “(1.8) %”.

**Q.** And the “AE leading to selexipag discontinuation: Investigations, % (Right ventricular systolic pressure)” value ([4]; All Patients (N = 56))?
**A.** Its value is “(1.8) %”.

**Q.** And the “AE leading to selexipag discontinuation: Investigations, n (Right ventricular systolic pressure)” value ([4]; All Patients (N = 56))?
**A.** Its value is 1 n.

**Q.** And the “AE leading to selexipag discontinuation: Musculoskeletal and connective tissue disorders, %” value ([4]; All Patients (N = 56))?
**A.** The value was “(1.8) %”.

**Q.** What about the “AE leading to selexipag discontinuation: Nervous system disorders, %” value ([4]; All Patients (N = 56)) of the same compound?
**A.** The value was “(1.8) %”.

**Q.** What about the “AE leading to selexipag discontinuation: Respiratory failure, %” value ([4]; All Patients (N = 56)) of the same compound?
**A.** Its value is “(1.8) %”.

**Q.** What about the “AE leading to selexipag discontinuation: Respiratory, thoracic and mediastinal disorders, %” value ([4]; All Patients (N = 56)) of the same compound?
**A.** The value was “(8.9) %”.

**Q.** And the “AE leading to selexipag discontinuation: Right ventricular failure, %” value ([4]; All Patients (N = 56))?
**A.** Its value is “(1.8) %”.

**Q.** What about the “AE leading to selexipag discontinuation: Right ventricular systolic pressure increased, %” value ([4]; All Patients (N = 56)) of the same compound?
**A.** Its value is “(1.8) %”.

**Q.** What about the “AE leading to selexipag discontinuation: Worsening pulmonary hypertension, %” value ([4]; All Patients (N = 56)) of the same compound?
**A.** Its value is “(5.4) %”.

**Q.** What about the “AE leading to selexipag discontinuation: Acute respiratory failure, %” value ([4]; Inhaled/Oral (n = 36)) of the same compound?
**A.** The value was 2.8%.

**Q.** What about the “AE leading to selexipag discontinuation: Arthralgia, %” value ([4]; Inhaled/Oral (n = 36)) of the same compound?
**A.** The value was 2.8%.

**Q.** And the “AE leading to selexipag discontinuation: Cardiac arrest, %” value ([4]; Inhaled/Oral (n = 36))?
**A.** Its value is 2.8%.

**Q.** What about the “AE leading … Cardiac disorders, %” value ([4]; Inhaled/Oral (n = 36)) of the same compound?
**A.** The value was 5.6%.

**Q.** And the “AE leading to selexipag discontinuation: Cardiac failure congestive, %” value ([4]; Inhaled/Oral (n = 36))?
**A.** The value was 2.8%.

**Q.** And the “AE leading to selexipag discontinuation: Headache, %” value ([4]; Inhaled/Oral (n = 36))?
**A.** Its value is 2.8%.

**Q.** What about the “AE leading to selexipag discontinuation: Investigations, n (Right ventricular systolic pressure)” value ([4]; Inhaled/Oral (n = 36)) of the same compound?
**A.** Its value is 0 n.

**Q.** And the “AE leading to selexipag discontinuation: Musculoskeletal and connective tissue disorders, %” value ([4]; Inhaled/Oral (n = 36))?
**A.** The value was 2.8%.

**Q.** And the “AE leading to selexipag discontinuation: Nervous system disorders, %” value ([4]; Inhaled/Oral (n = 36))?
**A.** Its value is 2.8%.

**Q.** What about the “AE leading to selexipag discontinuation: Patients with at least one AE, %” value ([4]; Inhaled/Oral (n = 36)) of the same compound?
**A.** Its value is 16.7%.

**Q.** What about the “AE leading to selexipag discontinuation: Respiratory failure, %” value ([4]; Inhaled/Oral (n = 36)) of the same compound?
**A.** The value was 2.8%.

**Q.** And the “AE leading to selexipag discontinuation: Respiratory, thoracic and mediastinal disorders, %” value ([4]; Inhaled/Oral (n = 36))?
**A.** Its value is 5.6%.

**Q.** And the “AE leading … Cardiac disorders, %” value ([4]; Parenteral (n = 20))?
**A.** Its value is “(10.0) %”.

**Q.** And the “AE leading to selexipag discontinuation: Fluid overload, %” value ([4]; Parenteral (n = 20))?
**A.** The value was “(5.0) %”.

**Q.** And the “AE leading to selexipag discontinuation: Investigations, % (Right ventricular systolic pressure)” value ([4]; Parenteral (n = 20))?
**A.** Its value is “(5.0) %”.

**Q.** What about the “AE leading to selexipag discontinuation: Investigations, n (Right ventricular systolic pressure)” value ([4]; Parenteral (n = 20)) of the same compound?
**A.** The value was 1 n.

**Q.** And the “AE leading to selexipag discontinuation: Respiratory, thoracic and mediastinal disorders, %” value ([4]; Parenteral (n = 20))?
**A.** Its value is “(15.0) %”.

**Q.** And the “AE leading to selexipag discontinuation: Right ventricular failure, %” value ([4]; Parenteral (n = 20))?
**A.** Its value is “(5.0) %”.

**Q.** What about the “AE leading to selexipag discontinuation: Right ventricular systolic pressure increased, %” value ([4]; Parenteral (n = 20)) of the same compound?
**A.** Its value is “(5.0) %”.

**Q.** And the “AE leading to selexipag discontinuation: Worsening pulmonary hypertension, %” value ([4]; Parenteral (n = 20))?
**A.** Its value is “(15.0) %”.

**Q.** And the “patients who discontinued selexipag” value ([4]; non-transitioned patients (65 of 194))?
**A.** Its value is 33.5%.

**Q.** And the “patients who discontinued selexipag” value ([4]; transitioned patients (16 of 56))?
**A.** Its value is 28.6%.

From patent US12419887B2, “Transitioning patients treated for pulmonary arterial hypertension to selexipag” (ACTELION PHARMACEUTICALS LTD, priority 2019, dated 2025)
